This passage reports IC50 results from patent publication US6979686B1, “Substituted pyrazoles as p38 kinase inhibitors” (Pharmacia Corporation, priority 2001, dated 2005).

Where only a bound is given, the exact number is not on record here.

T1 sequence (Q16539 whole entry): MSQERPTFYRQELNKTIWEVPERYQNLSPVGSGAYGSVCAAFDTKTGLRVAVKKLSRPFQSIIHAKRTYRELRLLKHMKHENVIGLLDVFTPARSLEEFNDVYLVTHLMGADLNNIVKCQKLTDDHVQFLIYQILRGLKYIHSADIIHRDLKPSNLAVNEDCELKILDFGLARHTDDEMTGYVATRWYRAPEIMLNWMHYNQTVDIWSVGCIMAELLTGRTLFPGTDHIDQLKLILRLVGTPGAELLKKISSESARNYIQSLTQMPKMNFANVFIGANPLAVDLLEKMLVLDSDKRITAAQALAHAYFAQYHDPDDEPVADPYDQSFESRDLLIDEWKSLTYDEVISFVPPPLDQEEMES

This assay concerns the target T1, human p38 kinase alpha (Homo sapiens, UniProt Q16539).
T1 construct: GST (N, cleaved yes); made in house; host or cells: E. coli DH10B
The assay can be described thus: p38 kinase in vitro assay, phosphorylation of biotinylated PHAS-I with 32P-ATP. It counts as biochemical. The following applies: in vitro P38-alpha kinase inhibition; read-out: P38 alpha kinase IC50. On the procedure:
The coding region of the human p38a cDNA was obtained by PCR-amplification from RNA isolated from the human monocyte cell line THP.1. […] Random primer, dNTP's and Superscript™ reagents were all purchased from Life-Technologies, Gaithersburg, Mass. The reaction was incubated at 42° C. for 1 hour. Amplification of p38 cDNA was performed by aliquoting 5 μl of the reverse transcriptase reaction into a 100 μl PCR reaction containing the following: 80 μl dH2O, 2 μl 50 mM DNTP's, 1 μl each of forward and reverse primers (50 pmol/μl), 10 μl of 10×buffer and 1 μl Expand™ polymerase (Boehringer Mannheim). The PCR primers incorporated BamHI sites onto the 5′ and 3′ end of the amplified fragment, and were purchased from Genosys. […] The PCR amplification was carried out in a DNA Thermal Cycler (Perkin Elmer) by repeating 30 cycles of 94° C. for 1 minute, 60° C. for 1 minute and 68° C. for 2 minutes. After amplification, excess primers and unincorporated dNTP's were removed from the amplified fragment with a Wizard™ PCR prep (Promega) and digested with BamHI (New England Biolabs). The BamHI digested fragment was ligated into BamHI digested PGEX 2T plasmid DNA (PharmaciaBiotech) using T-4 DNA ligase (New England Biolabs) as described by T. Maniatis, Molecular Cloning: A Laboratory Manual, 2nd ed. […] The ligation reaction was transformed into chemically competent E. coli DH10B cells purchased from Life-Technologies following the manufacturer's instructions. Plasmid DNA was isolated from the resulting bacterial colonies using a Promega Wizard™ miniprep kit.
Expression of Human p38a:
Overnight cultures were grown in-Luria Broth (LB) containing […] ampicillin. The next day, 500 ml of fresh LB was inoculated with 10 ml of overnight culture, and grown in a 2 liter flask at 37° C. with constant shaking until the culture reached an absorbance of 0.8 at 600 nm. Expression of the fusion protein was induced by addition of isopropyl b-D-thiogalactosidse (IPTG) to a final concentration of 0.05 mM. The cultures were shaken for three hours at room temperature, and the cells were harvested by centrifugation. The cell pellets were stored frozen until protein purification.
Purification of p38 Kinase-α:
All chemicals were from Sigma Chemical Co. unless noted. Twenty grams of E. coli cell pellet collected from five 1 L shake flask fermentations was resuspended in a volume of PBS (140 mM NaCl, 2.7 mM KCl, 10 mM Na2HPO4, 1.8 mM KH2PO4, pH 7.3) up to 200 ml. The cell suspension was adjusted to 5 mM DTT with 2 M DTT and then split equally into five 50 ml Falcon conical tubes. The cells were sonnicated (Ultrasonics model W375) with a 1 cm probe for 3×1 minutes (pulsed) on ice. Lysed cell material was removed by centrifugation (12,000×g, 15 minutes) and the clarified supernatant applied to glutathione-sepharose resin (Pharmacia).
Glutathione-sepharose Affinity Chromatography:
The resin was collected by centrifugation (600×g, 5 min) and washed with 2×150 ml PBS/1% Triton X-100, followed by 4×40 ml PBS. To cleave the p38 kinase from the GST-p38 fusion protein, the glutathione-sepharose resin was resuspended in 6 ml PBS containing 250 units thrombin protease (Pharmacia, specific activity>7500 units/mg) and mixed gently for 4 hours at room temperature. The glutathione-sepharose resin was removed by centrifugation (600×g, 5 min) and washed 2×6 ml with PBS. The PBS wash fractions and digest supernatant containing p38 kinase protein were pooled and adjusted to 0.3 mM PMSF.
Mono O Anion Exchange Chromatography:
The thrombin-cleaved p38 kinase was further purified by FPLC-anion exchange chromatography.
The IC50 is the concentration needed to halve the response being measured. For the compound `CC(NC(=O)N(C)c1ccccc1)c1[nH]nc(-c2ccc(F)cc2)c1-c1ccncc1` (stereo not drawn) [Example B-0586], the IC50 is 810 nM.

Take `CC(NC(=O)Nc1ccccc1O)c1[nH]nc(-c2ccc(F)cc2)c1-c1ccncc1` (stereo not drawn) [Example B-0587]: the IC50 stood at 6840 nM.

With `Cc1cccc(C)c1NC(=O)NC(C)c1[nH]nc(-c2ccc(F)cc2)c1-c1ccncc1` (stereo not drawn) [Example B-0588], the IC50 was found to be 12800 nM.

`C=CCNC(=O)NC(C)c1[nH]nc(-c2ccc(F)cc2)c1-c1ccncc1` (stereo not drawn) [Example B-0589]: the IC50 amounted to 1710 nM.

As to `CC(NC(=O)NCCc1ccccc1)c1[nH]nc(-c2ccc(F)cc2)c1-c1ccncc1` (stereo not drawn) [Example B-0593], the IC50 stood at 1220 nM.

For `COc1ccc(NC(=O)NC(C)c2[nH]nc(-c3ccc(F)cc3)c2-c2ccncc2)cc1` (stereo not drawn) [Example B-0596], the IC50 was 20000 nM.

On to `CCN(CC)C(=O)NC(C)c1[nH]nc(-c2ccc(F)cc2)c1-c1ccncc1` (stereo not drawn) [Example B-0597], for which the IC50 is 1680 nM.

In the case of `CCNC(=O)NC(C)c1[nH]nc(-c2ccc(F)cc2)c1-c1ccncc1` (stereo not drawn) [Example B-0598], the IC50 amounted to 2120 nM.

On to `CCCOC(=O)NC(C)c1[nH]nc(-c2ccc(F)cc2)c1-c1ccncc1` (stereo not drawn) [Example B-0602], for which the IC50 worked out at 970 nM.

With `CCOC(=O)NC(C)c1[nH]nc(-c2ccc(F)cc2)c1-c1ccncc1` (stereo not drawn) [Example B-0603], the IC50 came out at 90 nM.

Take `CC(NC(=O)C1CCCN1)c1[nH]nc(-c2ccc(F)cc2)c1-c1ccncc1` (stereo not drawn) [Example B-0604]: the IC50 came out at 300 nM.

For the compound `CC(NC(=O)C1CCCN1)c1[nH]nc(-c2ccc(F)cc2)c1-c1ccncc1` (stereo not drawn) [Example B-0605], the IC50 is 180 nM.

Consider `CC(C)OC(=O)NC(C)c1[nH]nc(-c2ccc(F)cc2)c1-c1ccncc1` (stereo not drawn) [Example B-0606], for which the concentration for half-maximal inhibition (IC50) was found to be 170 nM.

Regarding `CC(=O)Nc1nc(C)c(S(=O)(=O)NC(C)c2[nH]nc(-c3ccc(F)cc3)c2-c2ccncc2)s1` (stereo not drawn) [Example B-0607], the IC50 came to 2790 nM.

`CC(NS(=O)(=O)c1ccc(Br)cc1)c1[nH]nc(-c2ccc(F)cc2)c1-c1ccncc1` (stereo not drawn) [Example B-0609]: the IC50 was below 100 nM.

For `CC(NS(=O)(=O)c1ccc(Cl)cc1)c1[nH]nc(-c2ccc(F)cc2)c1-c1ccncc1` (stereo not drawn) [Example B-0610], the IC50 is below 100 nM.

`CC(NS(=O)(=O)CC12CCC(CC1=O)C2(C)C)c1[nH]nc(-c2ccc(F)cc2)c1-c1ccncc1` (stereo not drawn) [Example B-0611]: the IC50 is 650 nM.

Turning to `CC(NS(=O)(=O)c1cc(Cl)ccc1Cl)c1[nH]nc(-c2ccc(F)cc2)c1-c1ccncc1` (stereo not drawn) [Example B-0615], the half-maximal inhibitory concentration (IC50) is 80 nM.

In the case of `Cc1cc(C)c(S(=O)(=O)NC(C)c2[nH]nc(-c3ccc(F)cc3)c2-c2ccncc2)c(C)c1` (stereo not drawn) [Example B-0616], the half-inhibitory concentration (IC50) came to 380 nM.

Take `CC(NS(=O)(=O)c1ccc2ccccc2c1)c1[nH]nc(-c2ccc(F)cc2)c1-c1ccncc1` (stereo not drawn) [Example B-0617]: the IC50 was 45 nM.

Take `CC(NS(=O)(=O)c1cccc2ccccc12)c1[nH]nc(-c2ccc(F)cc2)c1-c1ccncc1` (stereo not drawn) [Example B-0618]: the IC50 was 370 nM.

With `CC(NS(=O)(=O)Cc1ccccc1[N+](=O)[O-])c1[nH]nc(-c2ccc(F)cc2)c1-c1ccncc1` (stereo not drawn) [Example B-0619], the half-maximal inhibitory concentration (IC50) is below 100 nM.

For `CC(NS(=O)(=O)c1cccc2cccnc12)c1[nH]nc(-c2ccc(F)cc2)c1-c1ccncc1` (stereo not drawn) [Example B-0620], the half-inhibitory concentration (IC50) worked out at 1590 nM.

With `CC(NS(=O)(=O)c1cccc2c(N(C)C)cccc12)c1[nH]nc(-c2ccc(F)cc2)c1-c1ccncc1` (stereo not drawn) [Example B-0621], the IC50 came out at 360 nM.

With `CC(NS(=O)(=O)c1cccc(Cl)c1Cl)c1[nH]nc(-c2ccc(F)cc2)c1-c1ccncc1` (stereo not drawn) [Example B-0622], the IC50 amounted to 76 nM.

Consider `CC(C)c1ccc(S(=O)(=O)NC(C)c2[nH]nc(-c3ccc(F)cc3)c2-c2ccncc2)cc1` (stereo not drawn) [Example B-0623], for which the IC50 stood at 120 nM.

As for `Cc1c(Cl)cccc1S(=O)(=O)NC(C)c1[nH]nc(-c2ccc(F)cc2)c1-c1ccncc1` (stereo not drawn) [Example B-0624], the IC50 was found to be 85 nM.

`CC(NS(=O)(=O)c1ccc(Cl)cc1Cl)c1[nH]nc(-c2ccc(F)cc2)c1-c1ccncc1` (stereo not drawn) [Example B-0625]: the IC50 was determined as 23 nM.

`CC(NS(=O)(=O)c1ccc(F)cc1Cl)c1[nH]nc(-c2ccc(F)cc2)c1-c1ccncc1` (stereo not drawn) [Example B-0626]: the IC50 was below 100 nM.

For `Cc1ccc(F)cc1S(=O)(=O)NC(C)c1[nH]nc(-c2ccc(F)cc2)c1-c1ccncc1` (stereo not drawn) [Example B-0628], the IC50 was 23 nM.

In the case of `CC(NS(=O)(=O)c1cc(Cl)c(Cl)s1)c1[nH]nc(-c2ccc(F)cc2)c1-c1ccncc1` (stereo not drawn) [Example B-0629], the IC50 is 200 nM.

Consider `CC(NS(=O)(=O)c1c(Cl)cccc1Cl)c1[nH]nc(-c2ccc(F)cc2)c1-c1ccncc1` (stereo not drawn) [Example B-0630], for which the IC50 was 60 nM.

Turning to `CC(NS(=O)(=O)c1ccccc1Br)c1[nH]nc(-c2ccc(F)cc2)c1-c1ccncc1` (stereo not drawn) [Example B-0631], the IC50 is 65 nM.

For `CC(NS(=O)(=O)c1cccc(Br)c1)c1[nH]nc(-c2ccc(F)cc2)c1-c1ccncc1` (stereo not drawn) [Example B-0632], the IC50 is below 100 nM.

Turning to `CCCCOc1ccc(S(=O)(=O)NC(C)c2[nH]nc(-c3ccc(F)cc3)c2-c2ccncc2)cc1` (stereo not drawn) [Example B-0633], the half-maximal inhibitory concentration (IC50) was found to be 600 nM.

Turning to `COc1ccc(OC)c(S(=O)(=O)NC(C)c2[nH]nc(-c3ccc(F)cc3)c2-c2ccncc2)c1` (stereo not drawn) [Example B-0634], the half-maximal inhibitory concentration (IC50) was found to be 600 nM.

`CC(NS(=O)(=O)c1ccccc1C(F)(F)F)c1[nH]nc(-c2ccc(F)cc2)c1-c1ccncc1` (stereo not drawn) [Example B-0635]: the half-inhibitory concentration (IC50) is 150 nM.

Regarding `CC(NS(=O)(=O)c1ccc(C(F)(F)F)cc1)c1[nH]nc(-c2ccc(F)cc2)c1-c1ccncc1` (stereo not drawn) [Example B-0636], the concentration for half-maximal inhibition (IC50) is below 100 nM.

For `Cc1cccc(S(=O)(=O)NC(C)c2[nH]nc(-c3ccc(F)cc3)c2-c2ccncc2)c1` (stereo not drawn) [Example B-0638], the 50% inhibitory concentration (IC50) was 250 nM.

Consider `CC(NS(=O)(=O)c1ccccc1Cl)c1[nH]nc(-c2ccc(F)cc2)c1-c1ccncc1` (stereo not drawn) [Example B-0640], for which the IC50 stood at 360 nM.

As to `CC(NS(=O)(=O)c1cc(Cl)cc(Cl)c1)c1[nH]nc(-c2ccc(F)cc2)c1-c1ccncc1` (stereo not drawn) [Example B-0641], the IC50 was determined as 580 nM.

Regarding `CC(NS(=O)(=O)c1ccc(Cl)c(Cl)c1)c1[nH]nc(-c2ccc(F)cc2)c1-c1ccncc1` (stereo not drawn) [Example B-0642], the IC50 was 490 nM.

For `CC(NS(=O)(=O)c1ccc(F)c(Cl)c1)c1[nH]nc(-c2ccc(F)cc2)c1-c1ccncc1` (stereo not drawn) [Example B-0643], the IC50 worked out at 69 nM.

On to `Cc1cccc(Cl)c1S(=O)(=O)NC(C)c1[nH]nc(-c2ccc(F)cc2)c1-c1ccncc1` (stereo not drawn) [Example B-0644], for which the IC50 came to 58 nM.

As to `Cc1ccc(C)c(S(=O)(=O)NC(C)c2[nH]nc(-c3ccc(F)cc3)c2-c2ccncc2)c1` (stereo not drawn) [Example B-0645], the half-maximal inhibitory concentration (IC50) stood at 580 nM.

Take `Cc1ccccc1S(=O)(=O)NC(C)c1[nH]nc(-c2ccc(F)cc2)c1-c1ccncc1` (stereo not drawn) [Example B-0646]: the IC50 came out at 260 nM.

Take `COc1ccc(C)cc1S(=O)(=O)NC(C)c1[nH]nc(-c2ccc(F)cc2)c1-c1ccncc1` (stereo not drawn) [Example B-0647]: the IC50 was found to be 1610 nM.

`CC(NS(=O)(=O)c1cccc(C(F)(F)F)c1)c1[nH]nc(-c2ccc(F)cc2)c1-c1ccncc1` (stereo not drawn) [Example B-0648]: the IC50 was below 100 nM.

With `CC(NS(=O)(=O)c1ccc2ccccc2c1)c1[nH]nc(-c2ccc(F)cc2)c1-c1ccncc1` (stereo not drawn) [Example B-0652], the IC50 is 190 nM.

Consider `Cc1noc(C)c1S(=O)(=O)NC(C)c1[nH]nc(-c2ccc(F)cc2)c1-c1ccncc1` (stereo not drawn) [Example B-0653], for which the IC50 is 2010 nM.

On to `CC(NS(=O)(=O)c1cccc2nonc12)c1[nH]nc(-c2ccc(F)cc2)c1-c1ccncc1` (stereo not drawn) [Example B-0654], for which the IC50 was 5970 nM.
